{
  "source": "patent US20080255177A1",
  "about": "“ANTI-TUMOR ACTIVITY OF CCI-779 IN PAPILLARY RENAL CELL CANCER” (Wyeth, priority 2007, published 2008)",
  "test_system": "advanced metastatic renal cell carcinoma",
  "experiment": "Phase III study of CCI-779 (temsirolimus) vs αIFN as first-line therapy",
  "type": "in vivo",
  "details": "for OS median: first-line, αIFN 3 MU escalating to 18 MU s.c. 3 times/week or CCI-779 25 mg i.v. weekly",
  "from_the_text": "In this phase III study, 626 advanced metastatic renal cell carcinoma patients from 26 countries were randomized to αIFN or CCI-779 (temsirolimus) as first-line therapy. This group is a very poor prognosis group of patients with many risk factors for early death. Patients received 3 million units (MU) of αIFN-alone subcutaneously 3 times/week, escalating to 18 MU or 25-mg CCI-779 intravenous infusion weekly.\nEligibility for this study required histologically confirmed, advanced (stage IV or recurrent disease) RCC with no prior systemic therapy for the disease. Subjects with central nervous system metastases, prior anticancer therapy for RCC and prior investigational therapy/agents within 4 weeks of randomization were excluded from the study.\nThe primary objective of this study was efficacy with a primary endpoint of overall survival. Secondary objectives of this study were safety, health outcomes, and additional efficacy endpoints. The secondary efficacy endpoints of this study were an evaluation of progression-free survival, response rate (complete and partial responses), clinical benefit rate, the duration of overall response, time to treatment failure, and health outcomes measurements. In addition, subject responses across all 3 treatment arms were evaluated based on screening tumor expression of proteins involved in the AKT-mTOR pathway. Other planned and post-hoc analyses were performed to assess influence of tumor histology (clear cell vs. non-clear cell), age (vs. >/=), and prognostic-risk groups (intermediate vs. poor).",
  "key": {"[1]": {"details": "patients <65yo, previously untreated advRCC, vs. αIFN"}, "[2]": {"details": "patients with clear-cell tumor histology"}, "[3]": {"details": "patients with other (non clear-cell) tumor histology"}, "[4]": {"details": "previously untreated clear-cell advRCC, vs. αIFN"}, "[5]": {"details": "previously untreated non clear-cell advRCC, TEMSR alone vs. αIFN"}},
  "note": "Values joined by “and” are separate entries in the source; they are usually repeats but may differ in a detail not shown here. Identical values can stand only once.",
  "data": [
    {"compound": "CO[C@H]1C[C@@H]2CC[C@@H](C)[C@@](O)(O2)C(=O)C(=O)N2CCCC[C@H]2C(=O)O[C@H]([C@H](C)C[C@@H]2CC[C@@H](OC(=O)C(C)(CO)CO)[C@H](OC)C2)CC(=O)[C@H](C)/C=C(\\C)[C@@H](O)[C@@H](OC)C(=O)[C@H](C)C[C@H](C)/C=C/C=C/C=C/1C", "note": "[TEMSR, rapamycin 42-ester with 3-hydroxy-2-(hydroxymethyl)-2-methylpropionic acid]", "values": [
      {"measurement": "OS hazard ratio, TEMSR vs. αIFN", "setting": "patients <65 years old", "result": "0.62 and 0.61"},
      {"measurement": "PFS hazard ratio, TEMSR vs. αIFN", "setting": "patients <65 years old", "result": "0.61 and 0.62"},
      {"measurement": "OS improved by", "setting": "[1]", "result": 64, "unit": "%"},
      {"measurement": "PFS prolonged by", "setting": "[1]", "result": 61, "unit": "%"},
      {"measurement": "reduction in risk of death", "setting": "[1]", "result": 39, "unit": "%"},
      {"measurement": "risk of death or disease progression reduced by", "setting": "[1]", "result": 38, "unit": "%"},
      {"measurement": "difference in OS or PFS, TEMSR or αIFN", "setting": "patients >/=65 years old", "result": "no difference"},
      {"measurement": "OS HR, TEMSR:IFN", "setting": "[2]", "result": 0.82},
      {"measurement": "PFS HR, TEMSR:IFN", "setting": "[2]", "result": 0.76},
      {"measurement": "PFS median", "setting": "[2]", "result": 5.5, "unit": "mo"},
      {"measurement": "OS median", "setting": "[2]", "result": 10.7, "unit": "mo"},
      {"measurement": "OS HR, TEMSR:IFN", "setting": "[3]", "result": 0.49},
      {"measurement": "PFS HR, TEMSR:IFN", "setting": "[3]", "result": 0.38},
      {"measurement": "PFS median", "setting": "[3]", "result": 7.0, "unit": "mo"},
      {"measurement": "OS median", "setting": "[3]", "result": 11.6, "unit": "mo"},
      {"measurement": "OS improved by", "setting": "[4]", "result": 22, "unit": "%"},
      {"measurement": "PFS prolonged by", "setting": "[4]", "result": 31, "unit": "%"},
      {"measurement": "reduction in risk of death", "setting": "[4]", "result": 18, "unit": "%"},
      {"measurement": "risk of death or disease progression reduced by", "setting": "[4]", "result": 24, "unit": "%"},
      {"measurement": "OS improved by", "setting": "[5]", "result": 104, "unit": "%"},
      {"measurement": "PFS prolonged by", "setting": "[5]", "result": 163, "unit": "%"},
      {"measurement": "reduction in risk of death", "setting": "[5]", "result": 51, "unit": "%"},
      {"measurement": "risk of death or disease progression reduced by", "setting": "[5]", "result": 62, "unit": "%"},
      {"measurement": "side effect profile vs. αIFN", "setting": "stated for patients >/=65 years old", "result": "better side effect profile than αIFN"}
    ]}
  ]
}
